# From patent publication US20240132431A1, “METHOD FOR ALKYLATING ACIDIC FUNCTIONAL GROUP” (Chugai Seiyaku Kabushiki Kaisha, priority 2021, published 2024)
# Molecular target: T1, Bcl-2 protein (Recombinant Human Bcl-2 Protein) (Homo sapiens, UniProt P10415)
# T1 construct: purchased Novus NBP2-34889
# Assay: Binding evaluation of mixture library compounds to Bcl-2 using AS-MS (affinity selection mass spectrometry)
# Conditions: AS-MS on the mixture of 1200 library compounds, ASMS Ratio(%)=(A−C)/B×100; for ASMS ratio (%) n = 2: replicate n = 2; for ASMS ratio (%) n = 1: replicate n = 1
# Summary of the method: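 Readout is ASMS Ratio (%), (A−C)/B×100, from reversed-phase LC/MS of SEC-passed extracts, with protein-free unfiltered standard (B) and protein-free SEC blank (C). Recombinant human Bcl-2 at 20 μM final met ~1200 pooled compounds at […] each for 1 h, 23° C., dark, in Tris-HCl pH 7.4 buffer.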
# T1 sequence (P10415 whole entry): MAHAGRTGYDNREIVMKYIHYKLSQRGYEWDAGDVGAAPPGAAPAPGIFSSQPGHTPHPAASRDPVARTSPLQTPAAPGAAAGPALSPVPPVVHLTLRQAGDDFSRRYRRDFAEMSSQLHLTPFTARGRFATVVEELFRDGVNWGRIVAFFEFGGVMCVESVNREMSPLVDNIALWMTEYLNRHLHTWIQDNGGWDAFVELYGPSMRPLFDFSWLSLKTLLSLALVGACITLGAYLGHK
structure (smiles),measurement,value
"CCOc1cncc(-c2cc(CN3CCN(c4ccc(C(=O)N(C)CC56CC7CC(CC(C7)C5)C6)cc4)CC3)cc(OCC)c2)c1 [B3A056-01, N-(1-Adamantylmethyl)-4-[4-[[3-ethoxy-5-(5-ethoxypyridin-3-yl)phenyl]methyl]piperazin-1-yl]-N-methylbenzamide]",ASMS ratio (%) n = 2,0.0%
"CCOc1cccc(-c2cc(CN3CCN(c4ccc(C(=O)N(C)CC56CC7CC(CC(C7)C5)C6)cc4)CC3)cc(OC(C)C)c2)c1 [B3A057-01, N-(1-Adamantylmethyl)-4-[4-[[3-(3-ethoxyphenyl)-5-propan-2-yloxyphenyl]methyl]piperazin-1-yl]-N-methylbenzamide]",ASMS ratio (%) n = 1,6.3%
same,ASMS ratio (%) n = 2,2.5%
"CCOc1cncc(-c2cc(CN3CCN(c4ccc(C(=O)N(C)CC56CC7CC(CC(C7)C5)C6)cc4)CC3)cc(OC(C)C)c2)c1 [B3A058-01, N-(1-Adamantylmethyl)-4-[4-[[3-(5-ethoxypyridin-3-yl)-5-propan-2-yloxyphenyl]methyl]piperazin-1-yl]-N-methylbenzamide]",ASMS ratio (%) n = 1,5.9%
same,ASMS ratio (%) n = 2,−7.6%
"CCOc1cccc(-c2cc(OC)c(CN3CCN(c4ccc(C(=O)N(C)CC56CC7CC(CC(C7)C5)C6)cc4)CC3)c(OC)c2)c1 [B3A059-01, N-(1-Adamantylmethyl)-4-[4-[[4-(3-ethoxyphenyl)-2,6-dimethoxyphenyl]methyl]piperazin-1-yl]-N-methylbenzamide]",ASMS ratio (%) n = 1,−1.9%
same,ASMS ratio (%) n = 2,−8.0%
"CCOc1cncc(-c2cc(OC)c(CN3CCN(c4ccc(C(=O)N(C)CC56CC7CC(CC(C7)C5)C6)cc4)CC3)c(OC)c2)c1 [B3A060-01, N-(1-Adamantylmethyl)-4-[4-[[4-(5-ethoxypyridin-3-yl)-2,6-dimethoxyphenyl]methyl]piperazin-1-yl]-N-methylbenzamide]",ASMS ratio (%) n = 1,0.9%
same,ASMS ratio (%) n = 2,0.0%
"CCOc1cccc(-c2cc(CN3CCN(c4ccc(C(=O)N(C)CC56CC7CC(CC(C7)C5)C6)cc4)CC3)cc(C(F)(F)F)c2)c1 [B3A061-01, N-(1-Adamantylmethyl)-4-[4-[[3-(3-ethoxyphenyl)-5-(trifluoromethyl)phenyl]methyl]piperazin-1-yl]-N-methylbenzamide]",ASMS ratio (%) n = 2,421.3%
"CCOc1cncc(-c2cc(CN3CCN(c4ccc(C(=O)N(C)CC56CC7CC(CC(C7)C5)C6)cc4)CC3)cc(C(F)(F)F)c2)c1 [B3A062-01, N-(1-Adamantylmethyl)-4-[4-[[3-(5-ethoxypyridin-3-yl)-5-(trifluoromethyl)phenyl]methyl]piperazin-1-yl]-N-methylbenzamide]",ASMS ratio (%) n = 1,2.2%
same,ASMS ratio (%) n = 2,2.8%
"CCOc1cccc(-c2cc(CN3CCN(c4ccc(C(=O)N(C)CC56CC7CC(CC(C7)C5)C6)cc4)CC3)cc(OC(F)(F)F)c2)c1 [B3A063-01, N-(1-Adamantylmethyl)-4-[4-[[3-(3-ethoxyphenyl)-5-(trifluoromethoxy)phenyl]methyl]piperazin-1-yl]-N-methylbenzamide]",ASMS ratio (%) n = 2,390.0%
"CCOc1cncc(-c2cc(CN3CCN(c4ccc(C(=O)N(C)CC56CC7CC(CC(C7)C5)C6)cc4)CC3)cc(OC(F)(F)F)c2)c1 [B3A064-01, N-(1-Adamantylmethyl)-4-[4-[[3-(5-ethoxypyridin-3-yl)-5-(trifluoromethoxy)phenyl]methyl]piperazin-1-yl]-N-methylbenzamide]",ASMS ratio (%) n = 1,−7.5%
same,ASMS ratio (%) n = 2,−5.5%
"CCOc1cccc(-c2ccc(CN3CCN(c4ccc(C(=O)N(C)CC56CC7CC(CC(C7)C5)C6)cc4)CC3)c3ccccc23)c1 [B3A065-01, N-(1-Adamantylmethyl)-4-[4-[[4-(3-ethoxyphenyl)naphthalen-1-yl]methyl]piperazin-1-yl]-N-methylbenzamide]",ASMS ratio (%) n = 1,0.0%
same,ASMS ratio (%) n = 2,0.0%
